Experimental data: the supplement of paper PMC11061612

Legend:
Selumetinib = compound: Cn1cnc2c(F)c(Nc3ccc(Br)cc3Cl)c(C(=O)NOCCO)cc21 [Selumetinib]; details: max 10 µM
Method in brief: (§1)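 Cancer cell lines were plated in 1536-well plates in 7.5 μl of DMEM/F12 or RPMI with 10% FBS and kept 24 hours at 37°C and 5% CO2 before 72 hours of dosing, with final DMSO typically 0.2%. CellTiter-Glo 2.0 luminescence measured viability, scaled between blank-well and DMSO-well means. Dose responses were fitted to a two-parameter logistic curve with a non-linear mixed effects model. This fit gives the single-agent IC50.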

MK-2206 = compound: NC1(c2ccc(-c3nc4ccn5c(=O)[nH]nc5c4cc3-c3ccccc3)cc2)CCC1 [MK-2206]; details: max 10 µM
Method in brief: as §1

AZD6738 = compound: C[C@@H]1COCCN1C2=NC(=NC(=C2)C3(CC3)[S@](=N)(=O)C)C4=C5C=CNC5=NC=C4 [AZD6738]; details: max 10 µM
Method in brief: as §1

5-Fluorouracil = compound: O=c1[nH]cc(F)c(=O)[nH]1 [5-Fluorouracil]; details: max 20 µM
Method in brief: as §1

Savolitinib = compound: C[C@@H](c1ccc2nccn2c1)n1nnc2ncc(-c3cnn(C)c3)nc21 [Savolitinib]; details: max 1 µM
Method in brief: as §1

AZD5153 = compound: COc1nnc2ccc(N3CCC(c4ccc(OCCN5CCN(C)C(=O)[C@H]5C)cc4)CC3)nn12 [AZD5153]; details: max 1 µM
Method in brief: as §1

SRA737 = compound: N#Cc1cnc(Nc2cc(NC[C@H]3CNCCO3)c(C(F)(F)F)cn2)cn1 [SRA737]; details: max 10 µM
Method in brief: as §1

AZD5991 = compound: Cc1c2c(nn1C)CSCc1cc(n(C)n1)CSc1cc(c3ccccc3c1)OCCCc1c(C(=O)O)n(C)c3c-2c(Cl)ccc13 [AZD5991]; details: max 1 µM
Method in brief: as §1

Gemcitabine = compound: Nc1ccn([C@@H]2O[C@H](CO)[C@@H](O)C2(F)F)c(=O)n1 [Gemcitabine]; details: max 0.3 µM
Method in brief: as §1

Crizotinib = compound: C[C@@H](Oc1cc(-c2cnn(C3CCNCC3)c2)cnc1N)c1c(Cl)ccc(F)c1Cl [Crizotinib]; details: max 10 µM
Method in brief: as §1

AZD4320 = compound: CN(CC[C@H](CSC1=CC=CC=C1)NC2=C(C=C(C=C2)S(=O)(=O)NC(=O)C3=CC=C(C=C3)N4CCC(CC4)[C@H](C5=CC=CC=C5C6=CC=C(C=C6)Cl)O)S(=O)(=O)C(F)(F)F)CCO [AZD4320]; details: max 1 µM
Method in brief: as §1

Trametinib = compound: CC(=O)Nc1cccc(-n2c(=O)n(C3CC3)c(=O)c3c(Nc4ccc(I)cc4F)n(C)c(=O)c(C)c32)c1 [Trametinib]; details: max 1 µM
Method in brief: as §1

AZD7648 = compound: Cc1cc2ncnn2cc1Nc1ncc2c(n1)n(C1CCOCC1)c(=O)n2C [AZD7648]; details: max 10 µM
Method in brief: as §1

Alisertib = compound: COc1cc(Nc2ncc3c(n2)-c2ccc(Cl)cc2C(c2c(F)cccc2OC)=NC3)ccc1C(=O)O [Alisertib]; details: max 10 µM
Method in brief: as §1

Etoposide = compound: COc1cc([C@@H]2c3cc4c(cc3[C@@H](O[C@@H]3O[C@@H]5CO[C@@H](C)O[C@H]5[C@H](O)[C@H]3O)[C@H]3COC(=O)[C@H]23)OCO4)cc(OC)c1O [Etoposide]; details: max 10 µM
Method in brief: as §1

Venetoclax = compound: CC1(C)CCC(CN2CCN(c3ccc(C(=O)NS(=O)(=O)c4ccc(NCC5CCOCC5)c([N+](=O)[O-])c4)c(Oc4cnc5[nH]ccc5c4)c3)CC2)=C(c2ccc(Cl)cc2)C1 [Venetoclax]; details: max 1 µM
Method in brief: as §1

AZD8186 = compound: C[C@@H](Nc1cc(F)cc(F)c1)c1cc(C(=O)N(C)C)cc2c(=O)cc(N3CCOCC3)oc12 [AZD8186]; details: max 10 µM
Method in brief: as §1

Dasatinib = compound: CC1=C(C(=CC=C1)Cl)NC(=O)C2=CN=C(S2)NC3=CC(=NC(=N3)C)N4CCN(CC4)CCO [Dasatinib]; details: max 2 µM
Method in brief: as §1

AZD1390 = compound: CC(C)n1c(=O)n(C)c2cnc3cc(F)c(-c4ccc(OCCCN5CCCCC5)nc4)cc3c21 [AZD1390]; details: max 0.3 µM
Method in brief: as §1

SG3199 = compound: CC1=CN2[C@@H](C1)C=NC3=CC(=C(C=C3C2=O)OC)OCCCCCOC4=C(C=C5C(=C4)N=C[C@@H]6CC(=CN6C5=O)C)OC [SG3199]; details: max 0.001 µM
Method in brief: as §1

SN-38 = compound: CCc1c2c(nc3ccc(O)cc13)-c1cc3c(c(=O)n1C2)COC(=O)[C@]3(O)CC [SN-38]; details: max 0.3 µM
Method in brief: as §1

AZD1775 = compound: C=CCn1c(=O)c2cnc(Nc3ccc(N4CCN(C)CC4)cc3)nc2n1-c1cccc(C(C)(C)O)n1 [AZD1775]; details: max 3 µM
Method in brief: as §1

Prexasertib = compound: COc1cccc(OCCCN)c1-c1cc(Nc2cnc(C#N)cn2)n[nH]1 [Prexasertib]; details: max 1 µM
Method in brief: as §1

Olaparib = compound: O=C(c1cc(Cc2n[nH]c(=O)c3ccccc23)ccc1F)N1CCN(C(=O)C2CC2)CC1 [Olaparib]; details: max 10 µM
Method in brief: as §1

Doxorubicin = compound: COc1cccc2c1C(=O)c1c(O)c3c(c(O)c1C2=O)C[C@@](O)(C(=O)CO)C[C@@H]3O[C@H]1C[C@H](N)[C@H](O)[C@H](C)O1 [Doxorubicin]; details: max 1 µM
Method in brief: as §1

[1] = compound: O=C(Nc1ccc2[nH]nc(-c3ccncc3)c2c1)[C@@H]1CCN(CC(=O)N2CCN(c3ccc(-c4ncccn4)cc3)CC2)C1; details: max 5 µM
Method in brief: as §1

Gefitinib = compound: COc1cc2ncnc(Nc3ccc(F)c(Cl)c3)c2cc1OCCCN1CCOCC1 [Gefitinib]; details: max 10 µM
Method in brief: as §1

AZD5363 = compound: C1CN(CCC1(C(=O)N[C@@H](CCO)C2=CC=C(C=C2)Cl)N)C3=NC=NC4=C3C=CN4 [AZD5363]; details: max 10 µM
Method in brief: as §1

AZD0156 = compound: CN(C)CCCOc1ccc(-c2ccc3ncc4c(c3c2)n(C2CCOCC2)c(=O)n4C)cn1 [AZD0156]; details: max 3 µM
Method in brief: as §1

Taselisib = compound: Cc1nc(-c2cn3c(n2)-c2ccc(-c4cnn(C(C)(C)C(N)=O)c4)cc2OCC3)n(C(C)C)n1 [Taselisib]; details: max 10 µM
Method in brief: as §1

Carboplatin = compound: C1CC(C1)(C(=O)[O-])C(=O)[O-].N.N.[Pt+2] [Carboplatin]; details: max 10 µM
Method in brief: as §1

AZD2811 = compound: CCN(CCO)CCCOc1ccc2c(Nc3cc(CC(=O)Nc4cccc(F)c4)[nH]n3)ncnc2c1 [AZD2811]; details: max 1 µM
Method in brief: as §1

Paclitaxel = compound: CC(=O)O[C@H]1C(=O)[C@@]2(C)[C@H]([C@H](OC(=O)c3ccccc3)[C@]3(O)C[C@H](OC(=O)[C@H](O)[C@@H](NC(=O)c4ccccc4)c4ccccc4)C(C)=C1C3(C)C)[C@]1(OC(C)=O)CO[C@@H]1C[C@@H]2O [Paclitaxel]; details: max 3 µM
Method in brief: as §1

Palbociclib = compound: CC(=O)c1c(C)c2cnc(Nc3ccc(N4CCNCC4)cn3)nc2n(C2CCCC2)c1=O [Palbociclib]; details: max 10 µM
Method in brief: as §1

Lapatinib = compound: CS(=O)(=O)CCNCc1ccc(-c2ccc3ncnc(Nc4ccc(OCc5cccc(F)c5)c(Cl)c4)c3c2)o1 [Lapatinib]; details: max 10 µM
Method in brief: as §1

Cell Line: NCI-H1651 (Lung Adenocarcinoma)
- IC50, cell viability 72 h (Selumetinib): > 10000 nM
- IC50, cell viability 72 h (MK-2206): > 10000 nM
- IC50, cell viability 72 h (AZD6738): > 10000 nM
- IC50, cell viability 72 h (5-Fluorouracil): > 20000 nM
- IC50, cell viability 72 h (Savolitinib): > 1000 nM
- IC50, cell viability 72 h (AZD5153): > 1000 nM
- IC50, cell viability 72 h (SRA737): > 10000 nM
- IC50, cell viability 72 h (AZD5991): > 1000 nM
- IC50, cell viability 72 h (Gemcitabine): > 300 nM
- IC50, cell viability 72 h (Crizotinib): > 10000 nM
- IC50, cell viability 72 h (AZD4320): > 1000 nM
- IC50, cell viability 72 h (Trametinib): > 1000 nM
- IC50, cell viability 72 h (AZD7648): > 10000 nM
- IC50, cell viability 72 h (Alisertib): > 10000 nM
- IC50, cell viability 72 h (Etoposide): 6010 nM
- IC50, cell viability 72 h (Venetoclax): > 1000 nM
- IC50, cell viability 72 h (AZD8186): > 10000 nM
- IC50, cell viability 72 h (Dasatinib): > 2000 nM
- IC50, cell viability 72 h (AZD1390): > 300 nM
- IC50, cell viability 72 h (SG3199): > 1 nM
- IC50, cell viability 72 h (SN-38): 22.1 nM
- IC50, cell viability 72 h (AZD1775): 779 nM
- IC50, cell viability 72 h (Prexasertib): 83.1 nM
- IC50, cell viability 72 h (Olaparib): > 10000 nM
- IC50, cell viability 72 h (Doxorubicin): 788 nM
- IC50, cell viability 72 h [1]: > 5000 nM
- IC50, cell viability 72 h (Gefitinib): > 10000 nM
- IC50, cell viability 72 h (AZD5363): > 10000 nM
- IC50, cell viability 72 h (AZD0156): > 3000 nM
- IC50, cell viability 72 h (Taselisib): > 10000 nM
- IC50, cell viability 72 h (Carboplatin): > 10000 nM
- IC50, cell viability 72 h (AZD2811): > 1000 nM
- IC50, cell viability 72 h (Paclitaxel): 21.7 nM
- IC50, cell viability 72 h (Palbociclib): > 10000 nM
- IC50, cell viability 72 h (Lapatinib): > 10000 nM
